Data set [1] relates to P388. The data set can be described thus: Antitumor activity against mouse P388 cells allografted in mouse assessed as increase in survival rate at 120 mg/kg relative to control. Format: functional.
Data set [2] has as its system Mus musculus. As to the kind of experiment: Toxicity in mouse allografted with mouse P388 cells at 120 mg/kg. Further details: dose 120 mg/kg. Format: organism-based. The note with it: in vivo.
Data set [3] has as its system Mus musculus. The data set can be described thus: Toxicity in mouse allografted with mouse P388 cells at 225 mg/kg. Further details: dose 225 mg/kg. Format: organism-based. The note with it: in vivo.
The subject of data set [4] is P388. As to the kind of experiment: Antitumor activity against mouse P388 cells allografted in mouse assessed as increase in survival rate at 225 mg/kg relative to control. Format: functional.

The T/C is the result in the treated group divided by that in the control group, in per cent. As for `NC(=O)Nc1cc(NC(N)=O)cc(N(CCCl)CCCl)c1`, in the data set on P388 [1], the T/C is on record as 194%. Besides, the Activity result with Mus musculus [2] is recorded as “Non-toxic”.

Regarding `CC(=O)Nc1cc(NC(C)=O)cc(N(CCCl)CCCl)c1`, in the data set with Mus musculus [3], the Activity entry is reported as “Non-toxic”. For the same compound, the T/C in the data set on P388 [4] worked out at 196%.

The values are drawn from ChEMBL document CHEMBL3271974, “Synthesis of the antileukemic compound N,N(11)-[5-[bis(2-chloroethyl)amino]-1, 3-phenylene]bisurea” (J Med Chem, 1976).
